In ChEMBL document CHEMBL4376849, “Harmicines - harmine and cinnamic acid hybrids as novel antiplasmodial hits” (Eur J Med Chem, 2020):
pIC50: −log10 of the molar value.

Tested on: Plasmodium falciparum
Test: Antiplasmodial activity against chloroquine-resistant Plasmodium falciparum Dd2 erythrocytic stage measured after 3 days by HRP2 assay
Assay type: functional, organism-based
Conditions: Dd2, 72 h

Structure (SMILES) | pIC50
COc1ccc2c3ccnc(C)c3n(Cc3cn(C/C=C/c4ccc5c(c4)OCO5)nn3)c2c1 | 5.80
COc1ccc(/C=C/Cn2cc(COc3ccc4c5ccnc(C)c5n(Cc5cn(C/C=C/c6ccc(OC)cc6)nn5)c4c3)nn2)cc1 | 6.80
Cc1nccc2c3ccc(OCc4cn(C/C=C/c5ccc(F)cc5)nn4)cc3n(Cc3cn(C/C=C/c4ccc(F)cc4)nn3)c12 | 5.10
Cc1nccc2c1[nH]c1cc(OCc3cn(C/C=C/c4cccc(F)c4)nn3)ccc12 | 5.92
COc1ccc2c3ccnc(C)c3n(Cc3cn(C/C=C/c4cccc(F)c4)nn3)c2c1 | 5.57
Cc1nccc2c3ccc(OCc4cn(C/C=C/c5ccc(F)c(F)c5)nn4)cc3n(Cc3cn(C/C=C/c4ccc(F)c(F)c4)nn3)c12 | 4.75
COc1ccc2c3ccnc(C)c3n(Cc3cn(C/C(C)=C/c4ccccc4)nn3)c2c1 | 5.55
COc1ccc2c3ccnc(C)c3n(Cc3cn(C/C=C/c4ccc(F)cc4)nn3)c2c1 | 5.66
COc1ccc2c3ccnc(C)c3n(Cc3cn(C/C=C/c4ccc(Cl)cc4)nn3)c2c1 | 5.73
Cc1nccc2c1[nH]c1cc(OCc3cn(C/C=C/c4ccc5c(c4)OCO5)nn3)ccc12 | 6.33
Cc1nccc2c1[nH]c1cc(OCc3cn(C/C=C/c4cccc(Br)c4)nn3)ccc12 | 6.34
Cc1nccc2c3ccc(OCc4cn(C/C=C/c5ccc6c(c5)OCO6)nn4)cc3n(Cc3cn(C/C=C/c4ccc5c(c4)OCO5)nn3)c12 | 6.19
Cc1nccc2c3ccc(OCc4cn(C/C=C/c5ccccc5)nn4)cc3n(Cc3cn(C/C=C/c4ccccc4)nn3)c12 | 5.80
Cc1nccc2c3ccc(OCc4cn(C/C=C/c5ccc(Cl)cc5)nn4)cc3n(Cc3cn(C/C=C/c4ccc(Cl)cc4)nn3)c12 | 5.48

Tested on: HepG2
Test: Cytotoxicity against human HepG2 cells measured after 24 hrs by neutral red assay
Assay type: cell-based
Conditions: HepG2, 24 h

Structure (SMILES) | pIC50
COc1ccc2c3ccnc(C)c3n(Cc3cn(C/C=C/c4ccc5c(c4)OCO5)nn3)c2c1 | 5.06
COc1ccc(/C=C/Cn2cc(COc3ccc4c5ccnc(C)c5n(Cc5cn(C/C=C/c6ccc(OC)cc6)nn5)c4c3)nn2)cc1 | 4.36
Cc1nccc2c3ccc(OCc4cn(C/C=C/c5ccc(F)cc5)nn4)cc3n(Cc3cn(C/C=C/c4ccc(F)cc4)nn3)c12 | 4.92
Cc1nccc2c1[nH]c1cc(OCc3cn(C/C=C/c4cccc(F)c4)nn3)ccc12 | 5.51
COc1ccc2c3ccnc(C)c3n(Cc3cn(C/C=C/c4cccc(F)c4)nn3)c2c1 | < 3.60
Cc1nccc2c3ccc(OCc4cn(C/C=C/c5ccc(F)c(F)c5)nn4)cc3n(Cc3cn(C/C=C/c4ccc(F)c(F)c4)nn3)c12 | 4.96
COc1ccc2c3ccnc(C)c3n(Cc3cn(C/C(C)=C/c4ccccc4)nn3)c2c1 | 4.93
COc1ccc2c3ccnc(C)c3n(Cc3cn(C/C=C/c4ccc(F)cc4)nn3)c2c1 | 5.05
COc1ccc2c3ccnc(C)c3n(Cc3cn(C/C=C/c4ccc(Cl)cc4)nn3)c2c1 | < 3.60
Cc1nccc2c1[nH]c1cc(OCc3cn(C/C=C/c4ccc5c(c4)OCO5)nn3)ccc12 | 5.25
Cc1nccc2c1[nH]c1cc(OCc3cn(C/C=C/c4cccc(Br)c4)nn3)ccc12 | 5.54
Cc1nccc2c3ccc(OCc4cn(C/C=C/c5ccc6c(c5)OCO6)nn4)cc3n(Cc3cn(C/C=C/c4ccc5c(c4)OCO5)nn3)c12 | 4.44
Cc1nccc2c3ccc(OCc4cn(C/C=C/c5ccccc5)nn4)cc3n(Cc3cn(C/C=C/c4ccccc4)nn3)c12 | 5.07
Cc1nccc2c3ccc(OCc4cn(C/C=C/c5ccc(Cl)cc5)nn4)cc3n(Cc3cn(C/C=C/c4ccc(Cl)cc4)nn3)c12 | 4.54

Tested on: Plasmodium berghei
Test: Antiplasmodial activity against liver stage luciferase expressing Plasmodium berghei sporozoites infected in human Huh7 cells preincubated with host cells for 1 hr followed by plasmodium infection by bioluminescence assay
Assay type: functional, organism-based
Conditions: Huh-7

Structure (SMILES) | pIC50
COc1ccc(/C=C/Cn2cc(COc3ccc4c5ccnc(C)c5n(Cc5cn(C/C=C/c6ccc(OC)cc6)nn5)c4c3)nn2)cc1 | 6.40
COc1ccc2c3ccnc(C)c3n(Cc3cn(C/C=C/c4ccc(Cl)cc4)nn3)c2c1 | 5.95

Tested on: Plasmodium falciparum
Test: Antiplasmodial activity against chloroquine-sensitive Plasmodium falciparum 3D7 erythrocytic stage measured after 3 days by HRP2 assay
Assay type: functional, organism-based
Conditions: 3D7, 72 h

Structure (SMILES) | pIC50
COc1ccc2c3ccnc(C)c3n(Cc3cn(C/C=C/c4ccc5c(c4)OCO5)nn3)c2c1 | 6.30
COc1ccc(/C=C/Cn2cc(COc3ccc4c5ccnc(C)c5n(Cc5cn(C/C=C/c6ccc(OC)cc6)nn5)c4c3)nn2)cc1 | 6.89
Cc1nccc2c3ccc(OCc4cn(C/C=C/c5ccc(F)cc5)nn4)cc3n(Cc3cn(C/C=C/c4ccc(F)cc4)nn3)c12 | 6.21
Cc1nccc2c1[nH]c1cc(OCc3cn(C/C=C/c4cccc(F)c4)nn3)ccc12 | 6.70
COc1ccc2c3ccnc(C)c3n(Cc3cn(C/C=C/c4cccc(F)c4)nn3)c2c1 | 6.05
Cc1nccc2c3ccc(OCc4cn(C/C=C/c5ccc(F)c(F)c5)nn4)cc3n(Cc3cn(C/C=C/c4ccc(F)c(F)c4)nn3)c12 | 5.97
COc1ccc2c3ccnc(C)c3n(Cc3cn(C/C(C)=C/c4ccccc4)nn3)c2c1 | 6.11
COc1ccc2c3ccnc(C)c3n(Cc3cn(C/C=C/c4ccc(F)cc4)nn3)c2c1 | 6.06
COc1ccc2c3ccnc(C)c3n(Cc3cn(C/C=C/c4ccc(Cl)cc4)nn3)c2c1 | 6.36
Cc1nccc2c1[nH]c1cc(OCc3cn(C/C=C/c4ccc5c(c4)OCO5)nn3)ccc12 | 6.80
Cc1nccc2c1[nH]c1cc(OCc3cn(C/C=C/c4cccc(Br)c4)nn3)ccc12 | 6.89
Cc1nccc2c3ccc(OCc4cn(C/C=C/c5ccc6c(c5)OCO6)nn4)cc3n(Cc3cn(C/C=C/c4ccc5c(c4)OCO5)nn3)c12 | 6.36
Cc1nccc2c3ccc(OCc4cn(C/C=C/c5ccccc5)nn4)cc3n(Cc3cn(C/C=C/c4ccccc4)nn3)c12 | 6.25
Cc1nccc2c3ccc(OCc4cn(C/C=C/c5ccc(Cl)cc5)nn4)cc3n(Cc3cn(C/C=C/c4ccc(Cl)cc4)nn3)c12 | 6.60

Tested on: not listed separately
Test: Selectivity index, ratio of IC50 for human HepG2 cells to IC50 for Plasmodium falciparum 3D7
Assay type: toxicity
Conditions: read-out: Ratio IC50

Structure (SMILES) | selectivity ratio
COc1ccc2c3ccnc(C)c3n(Cc3cn(C/C=C/c4ccc5c(c4)OCO5)nn3)c2c1 | 18
COc1ccc(/C=C/Cn2cc(COc3ccc4c5ccnc(C)c5n(Cc5cn(C/C=C/c6ccc(OC)cc6)nn5)c4c3)nn2)cc1 | 333
Cc1nccc2c3ccc(OCc4cn(C/C=C/c5ccc(F)cc5)nn4)cc3n(Cc3cn(C/C=C/c4ccc(F)cc4)nn3)c12 | 20
Cc1nccc2c1[nH]c1cc(OCc3cn(C/C=C/c4cccc(F)c4)nn3)ccc12 | 16
COc1ccc2c3ccnc(C)c3n(Cc3cn(C/C=C/c4cccc(F)c4)nn3)c2c1 | > 281
Cc1nccc2c3ccc(OCc4cn(C/C=C/c5ccc(F)c(F)c5)nn4)cc3n(Cc3cn(C/C=C/c4ccc(F)c(F)c4)nn3)c12 | 6
COc1ccc2c3ccnc(C)c3n(Cc3cn(C/C(C)=C/c4ccccc4)nn3)c2c1 | 15
COc1ccc2c3ccnc(C)c3n(Cc3cn(C/C=C/c4ccc(F)cc4)nn3)c2c1 | 10
COc1ccc2c3ccnc(C)c3n(Cc3cn(C/C=C/c4ccc(Cl)cc4)nn3)c2c1 | > 568
Cc1nccc2c1[nH]c1cc(OCc3cn(C/C=C/c4ccc5c(c4)OCO5)nn3)ccc12 | 35
Cc1nccc2c1[nH]c1cc(OCc3cn(C/C=C/c4cccc(Br)c4)nn3)ccc12 | 22
Cc1nccc2c3ccc(OCc4cn(C/C=C/c5ccc6c(c5)OCO6)nn4)cc3n(Cc3cn(C/C=C/c4ccc5c(c4)OCO5)nn3)c12 | 82
Cc1nccc2c3ccc(OCc4cn(C/C=C/c5ccccc5)nn4)cc3n(Cc3cn(C/C=C/c4ccccc4)nn3)c12 | 15
Cc1nccc2c3ccc(OCc4cn(C/C=C/c5ccc(Cl)cc5)nn4)cc3n(Cc3cn(C/C=C/c4ccc(Cl)cc4)nn3)c12 | 116
